Experiments:
Mu-type opioid receptor = Mu-type opioid receptor (Homo sapiens, UniProt P35372); experiment: Displacement of [3H]DAMGO from human mu opioid receptor expressed in CHO cell membranes after 60 mins by scintillation counting
Homo sapiens [1] = species on record: Homo sapiens; experiment: Selectivity ratio of Ki for human mu opioid receptor to Ki for human kappa opioid receptor
[2] = target: Kappa-type opioid receptor (Homo sapiens, UniProt P41145); experiment: Displacement of [3H]U69,593 from human kappa opioid receptor expressed in CHO cell membranes after 60 mins by scintillation counting
[3] = target: Delta-type opioid receptor (Homo sapiens, UniProt P41143); experiment: Displacement of [3H]naltrindole from human delta opioid receptor expressed in CHO cell membranes after 3 hrs by scintillation counting
Homo sapiens [4] = species on record: Homo sapiens; experiment: Selectivity ratio of Ki for human delta opioid receptor to Ki for human kappa opioid receptor
Homo sapiens [5] = species on record: Homo sapiens; experiment: Selectivity ratio of Ki for human kappa opioid receptor to Ki for human mu opioid receptor
Homo sapiens [6] = species on record: Homo sapiens; experiment: Selectivity ratio of Ki for human delta opioid receptor to Ki for human mu opioid receptor

Chain of Delta-type opioid receptor (P41143 whole entry): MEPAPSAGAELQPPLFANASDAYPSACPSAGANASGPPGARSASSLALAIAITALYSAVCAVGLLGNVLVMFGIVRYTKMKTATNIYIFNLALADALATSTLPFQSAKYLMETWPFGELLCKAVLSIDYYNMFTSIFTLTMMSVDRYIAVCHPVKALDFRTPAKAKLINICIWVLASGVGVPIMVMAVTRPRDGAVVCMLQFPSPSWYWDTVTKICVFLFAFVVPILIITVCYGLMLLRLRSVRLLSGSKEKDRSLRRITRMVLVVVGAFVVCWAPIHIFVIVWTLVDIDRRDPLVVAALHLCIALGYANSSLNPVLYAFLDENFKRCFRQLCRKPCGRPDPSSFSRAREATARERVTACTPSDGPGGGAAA
Chain of Kappa-type opioid receptor (P41145 whole entry): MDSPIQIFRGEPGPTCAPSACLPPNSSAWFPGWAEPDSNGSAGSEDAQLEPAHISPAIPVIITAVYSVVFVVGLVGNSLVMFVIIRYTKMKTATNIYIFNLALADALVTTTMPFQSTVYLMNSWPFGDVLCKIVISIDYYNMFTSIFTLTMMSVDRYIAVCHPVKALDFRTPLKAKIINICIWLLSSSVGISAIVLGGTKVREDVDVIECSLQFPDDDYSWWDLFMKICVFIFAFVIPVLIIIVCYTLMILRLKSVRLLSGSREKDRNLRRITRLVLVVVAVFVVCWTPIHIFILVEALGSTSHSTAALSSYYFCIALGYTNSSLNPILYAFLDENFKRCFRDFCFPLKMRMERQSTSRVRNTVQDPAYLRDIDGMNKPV
Chain of Mu-type opioid receptor (P35372 whole entry): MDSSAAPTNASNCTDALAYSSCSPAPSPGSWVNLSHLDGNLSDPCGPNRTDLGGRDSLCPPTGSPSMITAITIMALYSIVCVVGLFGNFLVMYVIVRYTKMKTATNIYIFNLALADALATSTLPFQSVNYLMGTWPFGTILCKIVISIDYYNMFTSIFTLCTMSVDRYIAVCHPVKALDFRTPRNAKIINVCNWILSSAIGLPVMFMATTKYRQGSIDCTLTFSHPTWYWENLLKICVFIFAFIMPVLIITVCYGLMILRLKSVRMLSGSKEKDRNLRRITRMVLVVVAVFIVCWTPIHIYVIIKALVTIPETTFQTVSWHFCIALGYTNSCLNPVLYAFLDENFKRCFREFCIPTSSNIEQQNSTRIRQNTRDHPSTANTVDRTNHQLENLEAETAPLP

Q: OC(CCCC(O)COc1ccc2c(c1)[C@@]13CCCC[C@H]1[C@@H](C2)N(CC1CCC1)CC3)COc1ccc2c(c1)[C@@]13CCCC[C@H]1[C@@H](C2)N(CC1CCC1)CC3 (stereo partly specified) was tested. Which Ki (Mu-type opioid receptor) did it give?
A: 12 nM

Q: And the Ratio Ki (Homo sapiens [1])?
A: 1.2

Q: And the Ki [2]?
A: 9.8 nM

Q: And the Ki [3]?
A: 160 nM

Q: What about the Ratio Ki (Homo sapiens [4]) of the same molecule?
A: 16

Q: What does the source list for CCCCCCCCCCOc1ccc2c(c1)[C@@]13CCCC[C@H]1[C@@H](C2)N(CC1CCC1)CC3?
A: Ki (Mu-type opioid receptor): 70 nM; Ratio Ki (Homo sapiens [1]): 1.3

Q: With OC(COc1ccccc1)COc1ccc2c(c1)[C@@]13CCCC[C@H]1[C@@H](C2)N(CC1CCC1)CC3 (stereo partly specified) as the molecule, how does the Ki (Mu-type opioid receptor) read?
A: 6.5 nM

Q: What about the Ki [2] of the same molecule?
A: 22 nM

Q: And the Ratio Ki (Homo sapiens [5])?
A: 13

Q: What about the Ratio Ki (Homo sapiens [6]) of the same molecule?
A: 13

Q: What about the Ki [3] of the same molecule?
A: 86 nM

Q: Which Ki (Mu-type opioid receptor) does the source give for OC(COc1ccc2c(c1)[C@@]13CCCC[C@H]1[C@@H](C2)N(CC1CCC1)CC3)CC(O)COc1ccc2c(c1)[C@@]13CCCC[C@H]1[C@@H](C2)N(CC1CCC1)CC3 (stereo partly specified) here?
A: 1.2 nM

Q: What about the Ratio Ki (Homo sapiens [1]) of the same molecule?
A: 7

Q: What about the Ki [2] of the same molecule?
A: 0.17 nM

Q: And the Ki [3]?
A: 33 nM

Q: And the Ratio Ki (Homo sapiens [4])?
A: 194

Q: c1cc2c(cc1OCCCCOc1ccc3c(c1)[C@@]14CCCC[C@H]1[C@@H](C3)N(CC1CCC1)CC4)[C@@]13CCCC[C@H]1[C@@H](C2)N(CC1CCC1)CC3 was tested. Which Ratio Ki (Homo sapiens [1]) did it give?
A: 1.6

Q: What about the Ratio Ki (Homo sapiens [4]) of the same molecule?
A: 40

Q: For c1cc2c(cc1OCCCOc1ccc3c(c1)[C@@]14CCCC[C@H]1[C@@H](C3)N(CC1CCC1)CC4)[C@@]13CCCC[C@H]1[C@@H](C2)N(CC1CCC1)CC3, which Ki (Mu-type opioid receptor) is on record?
A: 7.1 nM

Q: What about the Ratio Ki (Homo sapiens [1]) of the same molecule?
A: 1.1

Q: And the Ki [2]?
A: 6.2 nM

Q: And the Ki [3]?
A: 180 nM

Q: What about the Ratio Ki (Homo sapiens [4]) of the same molecule?
A: 29

Q: What does the source list for c1cc2c(cc1OCC1CO1)[C@@]13CCCC[C@H]1[C@@H](C2)N(CC1CCC1)CC3 (stereo partly specified)?
A: Ki (Mu-type opioid receptor): 7.3 nM; Ki [2]: 36 nM; Ratio Ki (Homo sapiens [5]): 5; Ratio Ki (Homo sapiens [6]): 27; Ki [3]: 200 nM

Q: Which results are given for OC(CCC(O)COc1ccc2c(c1)[C@@]13CCCC[C@H]1[C@@H](C2)N(CC1CCC1)CC3)COc1ccc2c(c1)[C@@]13CCCC[C@H]1[C@@H](C2)N(CC1CCC1)CC3 (stereo partly specified)?
A: Ki (Mu-type opioid receptor): 17 nM; Ratio Ki (Homo sapiens [1]): 1.4; Ki [2]: 12 nM; Ki [3]: 420 nM; Ratio Ki (Homo sapiens [4]): 35

Q: With c1cc2c(cc1OCCCCCCCCCCOc1ccc3c(c1)[C@@]14CCCC[C@H]1[C@@H](C3)N(CC1CCC1)CC4)[C@@]13CCCC[C@H]1[C@@H](C2)N(CC1CCC1)CC3 as the molecule, how does the Ratio Ki (Homo sapiens [5]) read?
A: 1.8

Q: What about the Ratio Ki (Homo sapiens [6]) of the same molecule?
A: 38

Q: Which results are given for OC(CCCCCC(O)COc1ccc2c(c1)[C@@]13CCCC[C@H]1[C@@H](C2)N(CC1CCC1)CC3)COc1ccc2c(c1)[C@@]13CCCC[C@H]1[C@@H](C2)N(CC1CCC1)CC3 (stereo partly specified)?
A: Ki (Mu-type opioid receptor): 4.8 nM; Ratio Ki (Homo sapiens [1]): 1.2; Ki [2]: 3.9 nM; Ki [3]: 99 nM; Ratio Ki (Homo sapiens [4]): 25

Q: For CCCCCCCCC(O)COc1ccc2c(c1)[C@@]13CCCC[C@H]1[C@@H](C2)N(CC1CCC1)CC3 (stereo partly specified), which Ki (Mu-type opioid receptor) is on record?
A: 7.4 nM

Q: What about the Ki [2] of the same molecule?
A: 8.3 nM

Q: And the Ratio Ki (Homo sapiens [5])?
A: 1.1

Q: And the Ratio Ki (Homo sapiens [6])?
A: 7

Q: And the Ki [3]?
A: 52 nM

Q: With OC(CCCCCCC(O)COc1ccc2c(c1)[C@@]13CCCC[C@H]1[C@@H](C2)N(CC1CCC1)CC3)COc1ccc2c(c1)[C@@]13CCCC[C@H]1[C@@H](C2)N(CC1CCC1)CC3 (stereo partly specified) as the molecule, how does the Ki (Mu-type opioid receptor) read?
A: 2.4 nM

Q: And the Ratio Ki (Homo sapiens [1])?
A: 1.7

Q: And the Ki [2]?
A: 1.4 nM

Q: What about the Ki [3] of the same molecule?
A: 27 nM

Q: What about the Ratio Ki (Homo sapiens [4]) of the same molecule?
A: 19

Q: OC(COc1ccc(Cc2ccc(OCC(O)COc3ccc4c(c3)[C@@]35CCCC[C@H]3[C@@H](C4)N(CC3CCC3)CC5)cc2)cc1)COc1ccc2c(c1)[C@@]13CCCC[C@H]1[C@@H](C2)N(CC1CCC1)CC3 (stereo partly specified) was tested. Which Ki (Mu-type opioid receptor) did it give?
A: 0.24 nM

Q: What about the Ki [2] of the same molecule?
A: 0.34 nM

Q: And the Ratio Ki (Homo sapiens [5])?
A: 1.4

Q: And the Ratio Ki (Homo sapiens [6])?
A: 121

Q: What about the Ki [3] of the same molecule?
A: 29 nM

Q: For OC(CCCCC(O)COc1ccc2c(c1)[C@@]13CCCC[C@H]1[C@@H](C2)N(CC1CCC1)CC3)COc1ccc2c(c1)[C@@]13CCCC[C@H]1[C@@H](C2)N(CC1CCC1)CC3 (stereo partly specified), which Ki (Mu-type opioid receptor) is on record?
A: 3.2 nM

Q: And the Ki [2]?
A: 3.3 nM

Q: And the Ratio Ki (Homo sapiens [6])?
A: 23

Q: What about the Ki [3] of the same molecule?
A: 74 nM

Q: And the Ratio Ki (Homo sapiens [4])?
A: 23

Q: Which Ki (Mu-type opioid receptor) does the source give for OC(COc1ccc2c(c1)[C@@]13CCCC[C@H]1[C@@H](C2)N(CC1CCC1)CC3)COc1ccc2c(c1)[C@@]13CCCC[C@H]1[C@@H](C2)N(CC1CCC1)CC3 here?
A: 0.95 nM

Q: What about the Ki [2] of the same molecule?
A: 0.99 nM

Q: And the Ratio Ki (Homo sapiens [6])?
A: 39

Q: And the Ki [3]?
A: 37 nM

Q: And the Ratio Ki (Homo sapiens [4])?
A: 39

Q: Which results are given for CCCCCCCCCC(=O)Oc1ccc2c(c1)[C@@]13CCCC[C@H]1[C@@H](C2)N(CC1CCC1)CC3?
A: Ki (Mu-type opioid receptor): 0.21 nM; Ki [2]: 0.2 nM; Ratio Ki (Homo sapiens [6]): 100; Ki [3]: 20 nM; Ratio Ki (Homo sapiens [4]): 100
